# Test results taken from patent US5859027A, “Antimicrobial agent” (ChekTec Corporation, priority 1997, dated 1999).
# Read-outs that look alike come from different tables or passages of the source.
# Key:
# [1] = tested on: Candida Albicans strain B311A; assay: MIC assay (Example 1B); format: cell-based; settings: for MIC: Candida albicans; for activity in the MIC assay of Example 1B (in words): HPLC-purified material, strain not stated
# Procedure: The fractions from the purification were tested for antifungal activity against C. albicans (strain B311A available from Dr. Paul Actor, Temple University and strains ATCC Nos. 10231 and 10261) and C. tropicalis (strain 13803). […] Prior to the assay for antifungal activity, the fungus to be tested for susceptibility was grown overnight from a single colony in 5 ml of medium at 30° C. This overnight culture was diluted 1:10 with fresh medium and grown at 37° C. for 4 hours. A volume of 5 μl of extracts, dissolved in DMSO, was added to each separate well in a series of 96-well plates. 4,000 fungal cells were then added to each plate in 95 μl of medium. The optical densities of the wells were measured and the plates incubated at 37° C. The optical densities were again measured after 24 and 48 hours. Minimum inhibitory concentrations ("MICs") for the extracts were determined using this procedure wherein the extracts were serially diluted in medium prior to mixing with the 4,000 fungal cells.
# [2] = tested on: Fungal cells; assay: Disk diffusion assay for antimicrobial activity (Example 2), zone of growth inhibition; format: cell-based; settings: for zone of inhibition at 100 µg/disc: 100 μg per 6 mm disk, read-out: zone of growth inhibition, diameter; for zone of inhibition at 100 µg/disc / zone of growth inhibition, diameter: 37° C., 24 hours
# Procedure: (§1) Fungal cells were grown overnight from a single colony in 2-5 ml Sabouraud Dextrose Broth at 37° C. 1-5×10^6 were spread onto Sabouraud Dextrose Agar plates (Difco, Detroit, Mich.). Sterile 6 mm filter disks were evenly spaced with at least about 22 mm separation on the plates. To each disk, 100 μg of a compound to be tested was applied in 5-10 μl DMSO. On each plate, two disks containing 2.5 and 10 μg, respectively, of Amphotericin B (Sigma) and two disks containing 2.5 and 10 μg, respectively, of cerulenin (Sigma) were used as positive controls. A disk containing only DMSO served as the negative control. The plates were incubated at 37° C. for 24 hours and the zone of growth inhibition about each disk was visually examined and measured. Compound A and compound B typically produced clear zones of 8-12 mm diameter. Amphotericin B typically produced a clear zone of 8-10 mm diameter. Cerulenin typically produced a hazy zone of 20-25 mm diameter. A clear zone is indicative of fungicidal activity, while a hazy zone is indicative of fungistatic activity.
# [3] = molecular target: T1, FAS from S. cereviseae (Saccharomyces cerevisiae, UniProt P07149+P19097); assay: FAS inhibition assay (Example 1C); format: biochemical
# T1 construct: an FAS extract from Saccharomyces cerviseae was prepared; (the yeast itself); host or cells: Fleishmans' freeze dried yeast (Saccharomyces cerevisiae); dialyzed ammonium sulfate precipitate of the lysate
# Procedure: To test the compounds for FAS inhibitory activity, an FAS extract from Saccharomyces cerviseae was prepared. Freeze dried yeast (Fleishmans' freeze dried yeast, Specialty Brands, San Francisco, Calif.) 1 g, was hydrated in 5 mls deionized water for 15 minutes at 4° C. Subsequent extraction steps were conducted at a temperature between 4° C. and 10° C., except that in the cell lysis step the temperature may have briefly exceeded these boundaries. The cells were pelleted by centrifugation; the pelleted volume was measured; and the cells were resuspended in 5 vol. (5 mls per ml cell volume) extraction buffer [125 mM KH2PO4, pH 6.6, 1 mM EDTA, 1 mM DTT, 0.7 μg/ml pepstatin (Boehringer Mannheim, Indianapolis, Ind.), 0.2 μg/ml aprotinin (Boehringer Mannheim, Indianapolis, Ind.), 0.2 μg/ml leupeptin (Boehringer Mannheim, Indianapolis, Ind.)]. The cells were again pelleted and resuspended in 2 vol. extraction buffer. The cells were lysed using a bead mill homogenizer (Biospec Products, Bartlesville, OD) with a volume of glass beads equal to the volume of the yeast cells. The bead mill was operated five times for 1 minute, with 1 minute intervals between operations to allow the water jacket of the bead mill to cool the material in the mill. The lysate was centrifuged at 30,000×g for 30 minutes and the supernate was collected. Ammonium sulfate was added to the supernate to 50% saturation and the mixture was stirred for 30 minutes on ice. […]
# 105 μl of FAS extract was placed in each well of a polypropylene 96 well plate (Costar Corp. Cambridge, Mass.) and multiple 5 μl dilutions of compound A, compound B or negative control solution were introduced into each of the wells. […] The relative initial reaction rates in each well were measured by measuring the decrease in optical density at 340 nm using a UV Max microtiter plate reader (Molecular Devices, Sunnyvalle, Calif.).
# [4] = tested on: Candida albicans (strains ATCC 10231 and ATCC 10261); assay: Disk diffusion assay for antimicrobial activity (Example 2); format: cell-based
# Procedure: as §1
# [5] = tested on: Candida tropicalis (strain ATCC 13803); assay: as above; format: cell-based
# Procedure: as §1
# [6] = Maximal tolerated dose in mice, IP administration; settings: mouse, in vivo, read-out: maximal tolerated dose (maximum dose that caused no deaths within 72 hours)
# Procedure: (§2) In vivo activity was determined using a murine systemic model of candidiasis. Groups of 5 to 10 mice were inoculated IV with 1-2×10^7 cells of C. albicans strain ATCC 10231 (10 times the lethal dose). One hour after inoculation, the candidate antifungal compounds were delivered IP. 10 mg/kg of compound A was injected into each mouse of the compound A treatment group. Two separate treatment groups received 30 and 100 mg/kg, respectively, of compound B. Amphotericin B was injected into a positive control treatment group at 10 mg/kg. All compounds were delivered in phosphate-buffered saline (PBS) and one treatment group received PBS. Twice daily thereafter the mice were observed, the number of dead mice recorded, and the dead mice removed. After nine days, the total mortality over the period was determined.
# Using the same methodology, it was determined that the maximal tolerated dose in these mice (i.e., the maximum dose that caused no deaths within 72 hours following IP administration) of compound B was in excess of 200 mg/kg. The mice treated with 2108B or Amphotericin B injected IP in […] of phosphate buffered saline, pH 7.4 had the following treatment profiles: […]
# [7] = tested on: C. albicans strain ATCC 10231; assay: Murine systemic model of candidiasis; format: in vivo, mice; settings: for % Survival: after nine days
# Procedure: as §2
# [8] = molecular target: T2, FAS of C. Albicans strain 4918 (Candida albicans, UniProt P34731+P43098); assay: FAS activity in extracts of treated C. Albicans cultures (Example 10); format: cell-based; settings: for remaining activity at 25 µg/mL / remaining activity at 10 µg/mL: read-out: Percent Remaining FAS Activity
# T2 construct: endogenous in cells; host or cells: Candida albicans strain 4918 (from Dr. Ronald Cihlar, Georgetown University Medical Center)
# T2 sequence (P43098 whole entry): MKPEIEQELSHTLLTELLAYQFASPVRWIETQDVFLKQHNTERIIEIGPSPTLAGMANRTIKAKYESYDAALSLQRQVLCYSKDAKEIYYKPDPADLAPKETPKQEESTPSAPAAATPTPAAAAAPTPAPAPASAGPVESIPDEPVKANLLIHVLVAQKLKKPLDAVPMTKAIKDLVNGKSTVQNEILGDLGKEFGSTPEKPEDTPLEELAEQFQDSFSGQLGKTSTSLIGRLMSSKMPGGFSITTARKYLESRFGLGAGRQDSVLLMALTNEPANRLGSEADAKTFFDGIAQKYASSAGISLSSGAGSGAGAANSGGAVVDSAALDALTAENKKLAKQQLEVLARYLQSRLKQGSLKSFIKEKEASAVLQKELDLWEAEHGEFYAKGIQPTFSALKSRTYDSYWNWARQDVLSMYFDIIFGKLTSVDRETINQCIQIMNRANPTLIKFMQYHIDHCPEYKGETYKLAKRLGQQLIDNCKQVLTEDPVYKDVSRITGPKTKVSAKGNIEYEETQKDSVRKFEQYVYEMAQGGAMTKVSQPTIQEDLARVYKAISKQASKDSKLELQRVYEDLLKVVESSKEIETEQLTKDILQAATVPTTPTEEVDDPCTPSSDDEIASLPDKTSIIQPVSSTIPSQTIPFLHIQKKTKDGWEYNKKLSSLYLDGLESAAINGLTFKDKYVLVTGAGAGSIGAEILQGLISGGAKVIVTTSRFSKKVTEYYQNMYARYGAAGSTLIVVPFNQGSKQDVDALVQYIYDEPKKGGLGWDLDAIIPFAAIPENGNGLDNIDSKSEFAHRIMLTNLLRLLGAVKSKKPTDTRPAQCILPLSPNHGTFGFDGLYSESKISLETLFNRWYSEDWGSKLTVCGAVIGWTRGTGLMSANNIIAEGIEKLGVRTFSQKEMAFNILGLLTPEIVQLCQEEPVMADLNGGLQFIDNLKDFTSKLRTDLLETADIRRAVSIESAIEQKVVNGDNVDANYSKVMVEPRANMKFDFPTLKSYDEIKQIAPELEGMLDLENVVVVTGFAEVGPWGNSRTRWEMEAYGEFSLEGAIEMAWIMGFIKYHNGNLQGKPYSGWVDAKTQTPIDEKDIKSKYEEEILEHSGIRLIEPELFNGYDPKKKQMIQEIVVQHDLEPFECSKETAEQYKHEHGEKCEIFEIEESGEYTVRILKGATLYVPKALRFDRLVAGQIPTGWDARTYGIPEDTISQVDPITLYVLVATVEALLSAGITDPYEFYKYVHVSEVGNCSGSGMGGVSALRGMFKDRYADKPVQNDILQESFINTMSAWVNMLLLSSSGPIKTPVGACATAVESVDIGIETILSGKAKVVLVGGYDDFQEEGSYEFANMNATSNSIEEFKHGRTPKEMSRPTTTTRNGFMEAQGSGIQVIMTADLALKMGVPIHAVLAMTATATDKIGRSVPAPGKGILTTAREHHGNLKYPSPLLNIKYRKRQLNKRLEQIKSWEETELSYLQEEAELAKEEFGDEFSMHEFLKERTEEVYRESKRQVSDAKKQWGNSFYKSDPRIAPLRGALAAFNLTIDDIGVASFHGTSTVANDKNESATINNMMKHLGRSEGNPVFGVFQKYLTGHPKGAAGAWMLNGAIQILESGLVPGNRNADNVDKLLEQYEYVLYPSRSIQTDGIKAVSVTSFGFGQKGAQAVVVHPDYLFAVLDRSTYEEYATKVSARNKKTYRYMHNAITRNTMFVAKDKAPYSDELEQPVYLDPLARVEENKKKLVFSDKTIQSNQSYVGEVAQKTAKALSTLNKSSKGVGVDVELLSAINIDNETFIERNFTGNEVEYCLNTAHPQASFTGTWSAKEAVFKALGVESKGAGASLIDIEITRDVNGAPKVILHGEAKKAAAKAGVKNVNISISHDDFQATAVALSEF
# T2 sequence (P34731 whole entry): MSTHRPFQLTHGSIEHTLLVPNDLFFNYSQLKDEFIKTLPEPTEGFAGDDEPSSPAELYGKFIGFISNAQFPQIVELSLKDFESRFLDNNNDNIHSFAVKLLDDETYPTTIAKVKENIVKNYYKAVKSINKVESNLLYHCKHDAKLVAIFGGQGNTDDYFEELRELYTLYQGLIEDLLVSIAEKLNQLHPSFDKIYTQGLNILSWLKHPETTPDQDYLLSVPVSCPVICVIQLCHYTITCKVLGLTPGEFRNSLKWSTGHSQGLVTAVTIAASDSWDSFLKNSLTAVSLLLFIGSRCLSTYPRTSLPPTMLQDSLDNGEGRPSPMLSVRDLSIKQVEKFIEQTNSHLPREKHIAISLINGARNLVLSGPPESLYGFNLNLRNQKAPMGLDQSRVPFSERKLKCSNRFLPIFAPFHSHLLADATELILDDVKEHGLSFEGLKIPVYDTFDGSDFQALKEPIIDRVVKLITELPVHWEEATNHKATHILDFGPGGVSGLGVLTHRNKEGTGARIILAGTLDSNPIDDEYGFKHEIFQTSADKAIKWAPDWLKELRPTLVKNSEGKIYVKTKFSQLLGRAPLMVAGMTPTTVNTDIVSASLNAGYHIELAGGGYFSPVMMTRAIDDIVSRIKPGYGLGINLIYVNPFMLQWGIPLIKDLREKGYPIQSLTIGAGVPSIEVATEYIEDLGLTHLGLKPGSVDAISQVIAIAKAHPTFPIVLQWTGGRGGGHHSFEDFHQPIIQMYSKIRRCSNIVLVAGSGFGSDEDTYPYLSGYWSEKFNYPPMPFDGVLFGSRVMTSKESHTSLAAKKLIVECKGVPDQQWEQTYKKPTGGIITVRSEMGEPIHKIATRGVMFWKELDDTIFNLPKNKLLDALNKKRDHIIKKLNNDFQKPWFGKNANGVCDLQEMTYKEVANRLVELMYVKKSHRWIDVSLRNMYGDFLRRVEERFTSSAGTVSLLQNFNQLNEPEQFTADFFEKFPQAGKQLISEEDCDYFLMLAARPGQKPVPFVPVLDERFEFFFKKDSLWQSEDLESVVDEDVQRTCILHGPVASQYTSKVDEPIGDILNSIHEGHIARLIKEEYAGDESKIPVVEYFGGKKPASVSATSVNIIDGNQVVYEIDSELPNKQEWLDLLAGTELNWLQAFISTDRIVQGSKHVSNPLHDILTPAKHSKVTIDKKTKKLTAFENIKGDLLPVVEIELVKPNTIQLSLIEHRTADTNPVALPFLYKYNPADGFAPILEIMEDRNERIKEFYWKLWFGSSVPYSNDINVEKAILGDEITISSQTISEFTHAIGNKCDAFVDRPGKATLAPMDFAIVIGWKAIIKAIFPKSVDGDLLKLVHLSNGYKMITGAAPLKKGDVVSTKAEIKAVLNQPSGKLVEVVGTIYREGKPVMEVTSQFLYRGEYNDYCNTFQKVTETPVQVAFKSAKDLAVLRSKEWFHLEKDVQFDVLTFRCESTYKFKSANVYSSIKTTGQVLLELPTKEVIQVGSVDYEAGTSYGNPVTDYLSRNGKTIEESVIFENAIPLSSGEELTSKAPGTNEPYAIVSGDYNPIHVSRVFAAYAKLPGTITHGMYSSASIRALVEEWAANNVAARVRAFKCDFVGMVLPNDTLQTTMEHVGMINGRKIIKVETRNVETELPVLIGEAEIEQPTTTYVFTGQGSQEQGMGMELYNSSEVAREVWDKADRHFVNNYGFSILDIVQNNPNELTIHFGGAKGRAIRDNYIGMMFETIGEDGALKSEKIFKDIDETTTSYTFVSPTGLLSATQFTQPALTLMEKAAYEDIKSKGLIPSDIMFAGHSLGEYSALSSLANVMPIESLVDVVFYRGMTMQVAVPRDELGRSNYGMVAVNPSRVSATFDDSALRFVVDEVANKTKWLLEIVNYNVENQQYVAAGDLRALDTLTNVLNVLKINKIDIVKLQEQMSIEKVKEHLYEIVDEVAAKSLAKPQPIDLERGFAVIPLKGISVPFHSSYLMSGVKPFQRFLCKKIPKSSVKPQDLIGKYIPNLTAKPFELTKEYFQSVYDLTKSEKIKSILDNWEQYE
# Procedure: C. Albicans strain 4918 (available from Dr. Ronald Cihlar, Georgetown University Medical Center, Washington, D.C.) was grown in minimal medium (M63 media available from Difco, Detroit, Mich.) at 37° C. to mid-log phase. 10 μg/ml cerulenin and 25 μg/ml of compound B were added to separate cultures. At 15 minute intervals, 20 ml samples were removed and extracts prepared by mechanical extraction as in Example 1C, except that the ammonium sulfate precipitation step was not applied. The extract was diluted to 1 ml to form a solution containing 0.4M potassium phosphate, pH 7.3, 0.125 μM dithiothreitol, 50 μM acetyl-CoA, 100 μM NADPH. After incubation at 37° C. for 5 minutes, 100 μM malonyl-CoA containing 0.5 μCi [2-^14 C]-malonyl-CoA (Amersham, Arlington Heights, Ill.). After 10 minutes at 37° C., the fatty acid synthesis reaction was terminated by adding 30 μl of 60% perchloric acid (v/v) and 1 ml ethanol. Four volumes of pet. ether were added to each reaction incubation to extract the fatty acids. The relative incorporation of malonyl-CoA into fatty acids was determined by liquid scintillation counting.
# [9] = Sabouraud Dextrose Broth substituted for YNB medium
# [10] = positive control disks with 2.5 and 10 μg
# [11] = 10 mg/kg IP one hour after inoculation
smiles,measurement,setting,value
"C/C=C/C=C/C=C/C1=CC2=CC(=O)C(C)(OC(=O)CC(O)CC(C)O)C(=O)C23OC3O1 (centres unmarked) [patulodin, reference compound]",MIC,[1]; YNB medium,> 100 µg/mL
same,zone of inhibition at 100 µg/disc,[2],7 mm
C/C=C/C=C/C=C/C1=CC2=CC(=O)C(C)(OC(=O)CC(C)O)C(=O)C2=CO1 (centres unmarked) [Compound B],MIC,[1]; [9],50 µg/mL
same,MIC,[1]; YNB medium,6.25 µg/mL
same,activity in the MIC assay of Example 1B (in words),[1],retained activity
same,FAS inhibition in the in vitro enzyme inhibition assay (in words),[3],not directly inhibitory of FAS
same,zone of inhibition at 100 µg/disc,[2],8 to 12 mm
same,"zone appearance (clear = fungicidal, hazy = fungistatic)",[2]; 100 μg per disk,clear zones
same,antimicrobial activity (in words),[4],had antimicrobial activity
same,antimicrobial activity (in words),[5],had antimicrobial activity
same,MTD at 72 h,[6],> 200 mg/kg
same,"Deaths Each Day Post Inoculation, day 0",[7]; 30 mg/kg IP,0
same,"Deaths Each Day Post Inoculation, day 1",[7]; 30 mg/kg IP,2
same,"Deaths Each Day Post Inoculation, day 2",[7]; 30 mg/kg IP,1
same,"Deaths Each Day Post Inoculation, day 3",[7]; 30 mg/kg IP,0
same,"Deaths Each Day Post Inoculation, day 4",[7]; 30 mg/kg IP,0
same,"Deaths Each Day Post Inoculation, day 5",[7]; 30 mg/kg IP,0
same,"Deaths Each Day Post Inoculation, day 6",[7]; 30 mg/kg IP,0
same,"Deaths Each Day Post Inoculation, day 7",[7]; 30 mg/kg IP,0
same,"Deaths Each Day Post Inoculation, day 8",[7]; 30 mg/kg IP,0
same,"Deaths Each Day Post Inoculation, day 9",[7]; 30 mg/kg IP,0
same,% Survival,[7]; 30 mg/kg IP one hour after inoculation,40%
same,"Deaths Each Day Post Inoculation, day 0",[7]; 100 mg/kg IP,0
same,"Deaths Each Day Post Inoculation, day 1",[7]; 100 mg/kg IP,2
same,"Deaths Each Day Post Inoculation, day 2",[7]; 100 mg/kg IP,0
same,"Deaths Each Day Post Inoculation, day 3",[7]; 100 mg/kg IP,0
same,"Deaths Each Day Post Inoculation, day 4",[7]; 100 mg/kg IP,0
same,"Deaths Each Day Post Inoculation, day 5",[7]; 100 mg/kg IP,0
same,"Deaths Each Day Post Inoculation, day 6",[7]; 100 mg/kg IP,0
same,"Deaths Each Day Post Inoculation, day 7",[7]; 100 mg/kg IP,0
same,"Deaths Each Day Post Inoculation, day 8",[7]; 100 mg/kg IP,1
same,"Deaths Each Day Post Inoculation, day 9",[7]; 100 mg/kg IP,0
same,% Survival,[7]; 100 mg/kg IP one hour after inoculation,40%
same,FAS activity of cell extracts made after exposure (in words),[8],markedly reduced FAS activity
same,remaining activity at 25 µg/mL,[8]; 0.25 h,53%
same,remaining activity at 25 µg/mL,[8]; 0.5 h,40%
same,remaining activity at 25 µg/mL,[8]; 0.75 h,35%
same,remaining activity at 25 µg/mL,[8]; 1 h,22%
"C[C@@H]1[C@H](O)[C@@H](C)/C=C/C=C/C=C/C=C/C=C/C=C/C=C/[C@H](O[C@@H]2O[C@H](C)[C@@H](O)[C@H](N)[C@@H]2O)C[C@@H]2O[C@](O)(C[C@@H](O)C[C@@H](O)[C@H](O)CC[C@@H](O)C[C@@H](O)CC(=O)O[C@H]1C)C[C@H](O)[C@H]2C(=O)O [Amphotericin B, reference compound]","zone appearance (clear = fungicidal, hazy = fungistatic)",[2]; [10],clear zone
same,"zone of growth inhibition, diameter",[2]; [10],8-10 mm
same,"Deaths Each Day Post Inoculation, day 0",[7]; 10 mg/kg IP,0
same,"Deaths Each Day Post Inoculation, day 1",[7]; 10 mg/kg IP,0
same,"Deaths Each Day Post Inoculation, day 3",[7]; 10 mg/kg IP,0
same,"Deaths Each Day Post Inoculation, day 5",[7]; 10 mg/kg IP,0
same,"Deaths Each Day Post Inoculation, day 6",[7]; 10 mg/kg IP,0
same,"Deaths Each Day Post Inoculation, day 7",[7]; 10 mg/kg IP,0
same,"Deaths Each Day Post Inoculation, day 8",[7]; 10 mg/kg IP,0
same,"Deaths Each Day Post Inoculation, day 9",[7]; 10 mg/kg IP,0
same,% Survival,[7]; [11],80%
C/C=C/C=C/C=C/C1=CC2=CC(=O)C(C)(OC(=O)CC(C)O)C(=O)C23OC3O1 (centres unmarked) [Compound A],MIC,[1]; [9],50 µg/mL
same,MIC,[1]; YNB medium,25 µg/mL
same,activity in the MIC assay of Example 1B (in words),[1],retained activity
same,FAS inhibition in the in vitro enzyme inhibition assay (in words),[3],retained activity
same,IC50,[3],414 µM
same,zone of inhibition at 100 µg/disc,[2],8 to 12 mm
same,"zone appearance (clear = fungicidal, hazy = fungistatic)",[2]; 100 μg per disk,clear zones
same,antimicrobial activity (in words),[4],had antimicrobial activity
same,antimicrobial activity (in words),[5],had antimicrobial activity
same,MTD at 72 h,[6],10 mg/kg
same,"Deaths Each Day Post Inoculation, day 0",[7]; 10 mg/kg IP,0
same,"Deaths Each Day Post Inoculation, day 1",[7]; 10 mg/kg IP,0
same,"Deaths Each Day Post Inoculation, day 2",[7]; 10 mg/kg IP,2
same,"Deaths Each Day Post Inoculation, day 3",[7]; 10 mg/kg IP,3
same,"Deaths Each Day Post Inoculation, day 4",[7]; 10 mg/kg IP,0
same,"Deaths Each Day Post Inoculation, day 5",[7]; 10 mg/kg IP,0
same,"Deaths Each Day Post Inoculation, day 6",[7]; 10 mg/kg IP,0
same,"Deaths Each Day Post Inoculation, day 7",[7]; 10 mg/kg IP,0
same,"Deaths Each Day Post Inoculation, day 8",[7]; 10 mg/kg IP,0
same,"Deaths Each Day Post Inoculation, day 9",[7]; 10 mg/kg IP,0
same,% Survival,[7]; [11],0%
"C/C=C/C/C=C/CCC(=O)[C@H]1O[C@H]1C(N)=O [Cerulenin, cerulenin, reference compound]","zone appearance (clear = fungicidal, hazy = fungistatic)",[2]; [10],hazy zone
same,"zone of growth inhibition, diameter",[2]; [10],20-25 mm
same,remaining activity at 10 µg/mL,[8]; 0.25 h,20%
same,remaining activity at 10 µg/mL,[8]; 0.5 h,12%
